# Experimental data from patent publication US8022051B2, “Composition for protection and improvement of skin, or reinforcing skin barrier function comprising phosphatidylserine” (Doosan Corporation, priority 2004, dated 2011).
# Experiments:
# [1] = tested on: skin keratinocytes (HaCaT); assay: Protection from ROS (hydrogen peroxide) in skin keratinocytes (MTT assay); format: cell-based; conditions: FIG. 8
# Protocol: In order to measure an effect of protecting the skin from the ROS in the keratinocyte by the phosphatidylserine of the invention, a following experiment was performed.
# First, the skin keratinocytes (HaCaT) were seeded to the 24-well plate in an amount of 5×10^4 cells/well. Next day, it was treated with 25 μM phosphatidylserine aqueous solution (Doosan Biotech, Korea) (phosphatidylserine-treated group), 100 μM vitamin C (ascorbic acid-treated group) and 100 μM vitamin E (a-tocopherol-treated group) as the positive control group and then cultured for 24 hours. Next day, it was treated with 1 mM hydrogen peroxide (H2O2) and then cultured for about 1˜1.5 hours. Then, a cell viability was examined with the MTT assay.
# PPAR-a = target: T1, PPAR-a (Homo sapiens, UniProt Q07869); assay: PPAR-a activation in HeLa cell line (PPRE-luciferase reporter); format: cell-based; conditions: 20 and 40 μM, eight hours; FIG. 7
# T1 construct: expressed in transfected cells; host or cells: HeLa (KCLB No. 10002)
# T1 sequence (Q07869 1-468): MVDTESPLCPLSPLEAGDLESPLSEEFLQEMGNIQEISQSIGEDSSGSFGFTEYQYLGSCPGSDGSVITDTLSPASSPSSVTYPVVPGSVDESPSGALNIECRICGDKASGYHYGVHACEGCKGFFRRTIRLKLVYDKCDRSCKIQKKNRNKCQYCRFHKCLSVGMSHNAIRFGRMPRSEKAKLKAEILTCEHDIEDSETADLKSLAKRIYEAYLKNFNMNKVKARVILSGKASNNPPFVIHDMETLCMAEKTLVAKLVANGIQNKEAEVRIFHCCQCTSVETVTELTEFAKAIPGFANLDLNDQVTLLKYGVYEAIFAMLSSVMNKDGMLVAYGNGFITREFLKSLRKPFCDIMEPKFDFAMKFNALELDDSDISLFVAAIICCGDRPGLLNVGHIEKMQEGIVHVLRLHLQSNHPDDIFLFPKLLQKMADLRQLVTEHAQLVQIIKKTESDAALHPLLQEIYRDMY
# Protocol: In order to examine a PPAR-a activating effect of the phosphatidylserine of the invention, a following experiment was performed. At this time, it was examined activities for the PPAR-a and PPAR-γ retained.
# First, a HeLa (Human epithelial carcinoma) (KCLB [Korean Cell Line Bank] No. 10002, Korea) was seeded to a 24-well plate in an amount of 2×10^4 cells/well and then cultured for a day. Next day, in order to perform a cell transfection, 200 ng of PPAR-a over-expression vector, 200 ng of PPRE (peculiar to PPAR-a)-luciferase reporter vector (Promega, USA), and 40 ng of renilla luciferase vector used as the control group in the cell (internal control, i.e., used to examine an transfection efficiency) were mixed in the OMEM (Gibco, USA) culture medium and subject to the transfection to the cell using the lipofectamin (Invitrogen, USA). After four hours, the culture medium was added to be 10% FBS and then cultured for one night. Next day, in order to measure an activity of PPAR-a, it was treated with 20 and 40 μM of phosphatidylserine and 400 μM of the clofibrate as the positive control group and then cultured for eight hours. An activity of the luciferase was measured with a luminometer using a dual luciferase assay system (Promega, USA). Also in case of PPAR-γ, the same process was performed to measure the activity. […]
# hairless mouse = assay: Skin barrier function restoration (TEWL) after tape stripping in hairless mice, oral administration; format: in vivo; conditions: 0.8 mg/mouse once a day for three weeks, up to 24 hours, compared to mouse not given phosphatidylserine, FIG. 9
# Protocol: In this example 9, it was examined a difference of water loss restoration rates in a group to which the phosphatidylserine was administrated and a group to which the phosphatidylserine was not administrated, using the hairless mouse, so as to examine an effect of the phosphatidylserine on the skin barrier function restoring reinforcement.
# First, a solution in which the phosphatidylserine (DS-PS, Doosan, Korea) was dispersed in a tertiary distilled water in a concentration of 400 mg/100 ml was used as a test material. It was prepared 10 hairless induced mice which were […] (Japan SLC Inc., Shizuoka, Japan). The solution was orally administrated to 5 mice of them in a dosage of 0.8 mg phosphatidylserine/mouse once a day and the tertiary distilled water was orally administrated to the other 5 mice. The medication period was three weeks. After that, it was measured a water evaporation loss for both sides of the backs of the hairless mice using a TEWL apparatus (TEWAMETER, TW210, Germany) (normal skin: about 10±2 g/hm^2). A Scotch tape was attached to the same positions and then cleared. […] After that, it was measured the water evaporation losses as time went by (i.e., before the injury, immediately after the injury, after 6 hours, after 9 hours and after 24 hours) to check the restoration rate of the skin barrier.
substance,measurement,setting,value
phosphatidylserine,protection effect from reactive oxygen species compared with the positive control material,[1]; phosphatidylserine 25 μM versus 100 μM positive controls,same protection effect with a smaller amount
same,"protection effect from reactive oxygen species (cell viability, MTT)","[1]; phosphatidylserine 25 μM, vitamin C 100 μM, vitamin E 100 μM, 24 hours, then 1 mM H2O2 about 1-1.5 hours",exhibited the protection effect
same,activity of PPAR-a (luciferase),PPAR-a,activated
same,restoration rate of the skin barrier function (TEWL),hairless mouse,higher restoration rate
